Laboratory results from US20250136556A1, “NOVEL MODULATORS OF THE ARYL HYDROCARBON RECEPTOR AND METHODS OF USE THEREOF” (Allianthera (Suzhou) Biopharmaceutical Co., Ltd., priority 2021, published 2025).
Where two headings read alike, the source gives them in different places.

Tests used:
[1] = biological target: T1, Human Aryl Hydrocarbon Receptor (AHR) (Homo sapiens, UniProt P35869); assay: AHR agonist reporter assay in human cell line (INDIGO luciferase reporter); type: cell-based; details: reporter cells; for EC50: 24 hours incubation; for AHR % activation to Tapinarof at 1 μM: 24 hours, value in brackets;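 for all read-outs here: firefly luciferase luminescence read on a plate reader, values normalized against positive and negative controls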
T1 construct: purchased INDIGO Bioscience IB06001-32; host or cells: AHR Reporter Cell (proprietary kit cells)
T1 sequence (P35869 11-848): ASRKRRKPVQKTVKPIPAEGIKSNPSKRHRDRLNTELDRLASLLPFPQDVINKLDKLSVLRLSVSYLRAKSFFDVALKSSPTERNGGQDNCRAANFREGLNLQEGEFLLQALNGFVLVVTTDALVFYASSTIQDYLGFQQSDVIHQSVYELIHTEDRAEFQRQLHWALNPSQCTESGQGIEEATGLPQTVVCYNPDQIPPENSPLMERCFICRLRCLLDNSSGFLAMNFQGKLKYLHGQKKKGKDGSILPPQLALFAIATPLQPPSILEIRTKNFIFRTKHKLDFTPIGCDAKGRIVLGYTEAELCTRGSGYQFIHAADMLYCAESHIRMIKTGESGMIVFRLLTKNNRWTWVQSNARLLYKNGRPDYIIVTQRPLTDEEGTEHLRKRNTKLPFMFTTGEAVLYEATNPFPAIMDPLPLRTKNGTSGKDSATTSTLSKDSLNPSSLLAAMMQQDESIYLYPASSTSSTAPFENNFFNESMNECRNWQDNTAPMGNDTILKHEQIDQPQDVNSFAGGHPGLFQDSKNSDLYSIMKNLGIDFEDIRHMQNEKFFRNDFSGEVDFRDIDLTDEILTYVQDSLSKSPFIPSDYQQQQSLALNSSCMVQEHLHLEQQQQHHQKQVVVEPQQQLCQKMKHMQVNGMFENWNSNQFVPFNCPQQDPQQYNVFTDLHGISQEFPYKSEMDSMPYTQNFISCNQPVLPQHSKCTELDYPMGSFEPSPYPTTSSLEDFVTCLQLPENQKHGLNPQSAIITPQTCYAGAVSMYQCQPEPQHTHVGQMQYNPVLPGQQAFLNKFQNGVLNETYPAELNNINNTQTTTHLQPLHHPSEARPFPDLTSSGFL
Procedure: The AHR reporter assay was performed following the protocol of the Human Aryl Hydrocarbon Receptor (AHR) Reporter Assay System (INDIGO Bioscience, #IB06001-32). AHR Reporter Cell was thawed and pre-incubated in Cell Recovery Medium (CRM) for 6 hours. […] Following 24 hours incubation, the media was removed and Luciferase Detection Reagent (LDR) added. The firefly luciferase activity was quantified using a plate reader. Results were normalized by positive and negative controls.

[2] = test system: AHR-regulated gene CYP1A1; assay: AHR-regulated CYP1A1 expression in human monocytic U937 cell line (qPCR); details: U937 cells, 16 hours, CYP1A1 relative to GAPDH
Procedure: To evaluate the AHR agonist activity of the test compounds, quantitative PCR analysis was used to determine expression level of the AHR-regulated gene CYP1A1 in a human monocytic U937 cell line. U937 cells were seeded at a concentration of 5×10^5 cells/well in 200 μL of growth medium in 96-well cell culture microplates. CYP1A1 expression was induced with AHR agonists described in literature as a positive control or the test compounds for 16 hours. […] Unstimulated cells were used as the negative control. Taqman probes for human CYP1A1 (Hs01054797_g1) and human GAPDH (Hs02786624_g1) were used to analyze fold expression of CYP1A1 of GAPDH.

[3] = test system: Human Nuclear Factor (erythroid-derived2)-like 2 (Nrf2); assay: Nrf2 transcription factor activity reporter assay in human cell line (INDIGO luciferase reporter); type: cell-based; details: reporter cells; for EC50: 24 hours incubation; for Nrf2 % activation to Tapinarof at 9 μM: 24 hours, value in brackets
Procedure: The Nrf2 reporter assay was performed following the protocol of the Human Nuclear Factor (erythroid-derived2)-like 2 (Nrf2) Reporter Assay System (INDIGO Bioscience, #IB10001). Nrf2 Reporter Cell was thawed and pre-incubated in Cell Recovery Medium (CRM) for 6 hours. The media was then removed and the cells were incubated with Compound Screening Medium (CSM) in the absence (negative control) or presence of increasing concentrations of test compounds (typical dilution: 128 pM, 640 pM, 3.2 nM, 16 nM, 80 nM, 400 nM, […] in duplicates) for 24 hours. For positive control, cells activated with CDDO or Nrf2 agonists described in literature. Following 24 hours incubation, the media was removed and Luciferase Detection Reagent (LDR) added. The firefly luciferase activity was quantified using a plate reader. Results were normalized by positive and negative controls.

[4] = test system: IL-6 gene expression in human primary M1 macrophage cells; assay: AHR-regulated IL-6 inhibition in human primary M1 macrophage (qPCR); type: cell-based; details: LPS/IFN-gamma/GM-CSF, 24 hours; for IC50: read-out: M1 assay IL6 -IC50
Procedure: Human M1 macrophage was differentiated from PBMC. Briefly, at day 1, monocytes were isolated from human PBMC using EasySe Human Monocyte Enrichment Kit without CD16 Depletion (Stemcell, 19058). The isolated monocytes were seeded at 3×10^7 cells in 15 cm dish using 30 ml medium containing 50 ng/ml GM-CSF (R&D, 215-GM-050/CF). At day 5, 30 ml fresh medium containing 50 ng/ml GM-CSF was added. At day 8, 1.5×10^5 cells/well were re-seeded into 24 wells plate, and 500 ul medium containing 10 ng/ml LPS (Sigma, L7770), 20 ng/ml IFN-gamma (PeproTech, 300-02), 50 ng/ml GM-CSF and the test compounds was added. […] The IL-6 expression was inhibited with AHR agonists described in literature as the positive inhibition control, alternatively the un-stimulated cells were used as the negative inhibition control. […] The primers for human GAPDH (F: […]; R: […]) and human IL-6 (F: […]; R: […]) were used to analyze fold expression of IL-6 of GAPDH by quantitative PCR.

[5] = first line of cell, read-out: AHR reEC50
[6] = second line of cell, read-out: AHR abEC50
[7] = first line of cell, read-out: Nrf2 reEC50
[8] = second line of cell, read-out: Nrf2 EC50, second line of cell (head does not name it)

CC(C)c1ncc(-c2ccc3ccccc3n2)cc1O [Compound 98]
EC50 [1, 5]: 176000 nM | EC50 [1, 6]: 403 nM | AHR % activation to Tapinarof at 1 μM [1]: 71.2% | CYP1A1 (% activation to Tapinarof at 1 μM) [2]: 83.6% | EC50 [3, 7]: 40 nM | EC50 [3, 8]: 139 nM | Nrf2 % activation to Tapinarof at 9 μM [3]: 83.6%

CC(C)c1c(O)cc(-c2cnc3ccccc3c2)cc1O [Compound 48]
EC50 [1, 5]: 64.3 nM | EC50 [1, 6]: 57.5 nM | AHR % activation to Tapinarof at 1 μM [1]: 69.5% | CYP1A1 (% activation to Tapinarof at 1 μM) [2]: 78.4% | M1 assay IL6 -max % inhibition (% to no treatment) [4]: 89.60% | IC50 [4]: 3 nM | EC50 [3, 7]: 14.5 nM | EC50 [3, 8]: 29.6 nM | Nrf2 % activation to Tapinarof at 9 μM [3]: 84.4%

COc1cc(/C=C/c2ccccc2)cc(O)c1C(C)(C)O [Compound 111]
EC50 [1, 6]: 39 nM | EC50 [3, 8]: 57 nM

COc1cc(/C=C/c2ccccc2)cc(OC)c1C(C)=O [Compound 107, 1-{2,6-dimethoxy-4-[(E)-2-phenylethenyl]phenyl} ethenone]
EC50 [1, 6]: > 100 nM | EC50 [3, 8]: > 100 nM

Cc1ccnc2cc(-c3cc(O)c(C(C)C)c(O)c3)ccc12 [Compound 22]
EC50 [1, 6]: 2.12 nM | M1 assay IL6 -max % inhibition (% to no treatment) [4]: 77.20% | IC50 [4]: 0.05 nM

CC(C)Oc1cc(/C=C/c2ccccc2)cc(O)n1 [Compound 106, (E)-6-isopropoxy-4-styrylpyridin-2-ol]
EC50 [1, 6]: 343 nM | EC50 [3, 8]: > 400 nM

Cc1ccnc2cc(-c3cc(O)c(C(C)C)c(F)c3)ccc12 [Compound 147]
M1 assay IL6 -max % inhibition (% to no treatment) [4]: 91.60% | IC50 [4]: 0.03 nM

CC(C)c1ncc(-c2nc3ccccc3o2)cc1O [Compound 100]
EC50 [1, 5]: 21.9 nM | EC50 [1, 6]: > 1000 nM | AHR % activation to Tapinarof at 1 μM [1]: 49.7% | CYP1A1 (% activation to Tapinarof at 1 μM) [2]: 90.5% | EC50 [3, 7]: 200 nM | EC50 [3, 8]: 890 nM | Nrf2 % activation to Tapinarof at 9 μM [3]: 62.3%

CC(C)c1c(O)cc(/C=C/c2ccccc2)cc1F [Compound 135]
EC50 [1, 6]: 38.6 nM | M1 assay IL6 -max % inhibition (% to no treatment) [4]: 95.30% | IC50 [4]: 1.7 nM

CC(C)c1ncc(-c2cc3ccccc3cn2)cc1O [Compound 97]
EC50 [1, 5]: 1620 nM | EC50 [1, 6]: 569 nM | AHR % activation to Tapinarof at 1 μM [1]: 62.6% | CYP1A1 (% activation to Tapinarof at 1 μM) [2]: 78.9% | EC50 [3, 7]: 249 nM | EC50 [3, 8]: 501 nM | Nrf2 % activation to Tapinarof at 9 μM [3]: 67.2%

CCCc1c(O)cc(/C=C/c2ccccc2)cc1F [Compound 125, 3-fluoro-5-[(E)-2-phenylethenyl]-2-propylphenol]
EC50 [1, 6]: 11.5 nM | M1 assay IL6 -max % inhibition (% to no treatment) [4]: 91.70% | IC50 [4]: 1.35 nM

CC(C)c1ncc(-c2cnc3ccccc3c2)cc1O [Compound 99]
EC50 [1, 6]: > 100 nM | EC50 [3, 8]: 100 nM

CC(C)c1c(O)cc(-c2nc3ccccc3[nH]2)cc1O [Compound 50]
EC50 [1, 6]: 17.4 nM | EC50 [3, 8]: 20 nM

CC(C)c1c(O)cc(-c2ccc3cc(F)ccc3n2)cc1F [Compound 143]
M1 assay IL6 -max % inhibition (% to no treatment) [4]: 91.80% | IC50 [4]: 2.7 nM

COc1cc(-c2nc3ccccc3o2)cc(O)c1C(C)C [Compound 122, 5-(benzo[d]oxazol-2-yl)-2-isopropyl-3-methoxyphenol]
EC50 [1, 5]: 254 nM | EC50 [1, 6]: 395 nM | AHR % activation to Tapinarof at 1 μM [1]: 64.4% | CYP1A1 (% activation to Tapinarof at 1 μM) [2]: 39.3% | EC50 [3, 7]: 2640 nM | Nrf2 % activation to Tapinarof at 9 μM [3]: 25.7%

CC(C)c1c(O)cc(-c2ccc3ccccc3n2)cc1O [Compound 47]
EC50 [1, 6]: 4.21 nM | EC50 [3, 8]: 530 nM

CC(C)c1c(O)cc(-c2cc(F)c3cnc(N)nc3c2)cc1F [Compound 149]
M1 assay IL6 -max % inhibition (% to no treatment) [4]: 91.10% | IC50 [4]: 0.5 nM

CC(C)c1ncc(/C=C/c2ccccc2F)cc1O [Compound 112, 5-[(E)-2-(2-fluorophenyl)ethenyl]-2-isopropylpyridin-3-ol]
EC50 [1, 6]: 99 nM | M1 assay IL6 -max % inhibition (% to no treatment) [4]: 77.90% | IC50 [4]: 1.57 nM | EC50 [3, 8]: 97 nM

CC(C)c1c(O)cc(-c2cc3ccccc3cn2)cc1O [Compound 46]
EC50 [1, 5]: 72.7 nM | EC50 [1, 6]: 39 nM | AHR % activation to Tapinarof at 1 μM [1]: 95.8% | CYP1A1 (% activation to Tapinarof at 1 μM) [2]: 95.3% | EC50 [3, 7]: 16.3 nM | EC50 [3, 8]: 166 nM | Nrf2 % activation to Tapinarof at 9 μM [3]: 69.3%

CC(C)c1c(O)cc(-c2ccc3ncccc3c2F)cc1F [Compound 140]
M1 assay IL6 -max % inhibition (% to no treatment) [4]: 92.30% | IC50 [4]: 0.13 nM

CC(C)c1c(O)cc(/C=C/c2ccccc2)cc1O [Tapinarof, reference compound]
AHR % activation to Tapinarof at 1 μM [1]: 100% | CYP1A1 (% activation to Tapinarof at 1 μM) [2]: 100% | EC50 [3, 7]: 55 to 75 nM

CC(C)c1ncc(/C=C/c2cccc(F)c2)cc1O [Compound 113, (E)-5-(3-fluorostyryl)-2-isopropylpyridin-3-ol]
EC50 [1, 6]: 298 nM | M1 assay IL6 -max % inhibition (% to no treatment) [4]: 67.80% | IC50 [4]: 120 nM

CC(C)c1ncc(-c2nc3ccccc3o2)cc1N [Compound 121, 5-(1,3-benzoxazol-2-yl)-2-isopropylpyridin-3-amine]
EC50 [1, 6]: > 100 nM | EC50 [3, 8]: 120 nM

COc1cc(Oc2ccccc2)cc(O)c1C(C)C [Compound 133, 2-isopropyl-3-methoxy-5-phenoxyphenol]
EC50 [1, 6]: 233 nM | EC50 [3, 8]: > 400 nM

CCCc1c(O)cc(-c2cnc3c(F)c(F)ccc3c2)cc1F [Compound 155]
M1 assay IL6 -max % inhibition (% to no treatment) [4]: 89.10% | IC50 [4]: 3.5 nM

CC(C)c1c(O)cc(-c2ccc3cnccc3c2F)cc1F [Compound 139]
M1 assay IL6 -max % inhibition (% to no treatment) [4]: 85.80% | IC50 [4]: 5 nM

CC(C)c1ncc(/C=C/c2ccc(F)cc2)cc1O [Compound 114, 5-[(E)-2-(4-fluorophenyl)ethenyl]-2-isopropylpyridin-3-ol]
EC50 [1, 5]: 143 nM | EC50 [1, 6]: 120 nM | AHR % activation to Tapinarof at 1 μM [1]: 88.5% | EC50 [3, 8]: 19 nM

C=C(C)c1c(OC)cc(/C=C/c2ccccc2)cc1OC [Compound 110, 1,3-dimethoxy-5-[(E)-2-phenylethenyl]-2-(prop-1-en-2-yl)benzene]
EC50 [1, 6]: > 100 nM | EC50 [3, 8]: > 100 nM

CC(C)c1c(O)cc(-c2cc(F)c3ncccc3c2)cc1F [Compound 145]
M1 assay IL6 -max % inhibition (% to no treatment) [4]: 94.10% | IC50 [4]: 1.9 nM

CCCc1c(O)cc(-c2ccc3c(C)ccnc3c2)cc1F [Compound 161]
M1 assay IL6 -max % inhibition (% to no treatment) [4]: 91.30% | IC50 [4]: 1.19 nM

CC(C)c1ncc(-c2ccc3ccccc3n2)cc1N [Compound 119, 2-isopropyl-5-(quinolin-2-yl)pyridin-3-amine]
EC50 [1, 5]: 66 nM | AHR % activation to Tapinarof at 1 μM [1]: 16.4% | CYP1A1 (% activation to Tapinarof at 1 μM) [2]: 0.4% | EC50 [3, 7]: 125 nM | EC50 [3, 8]: 129 nM | Nrf2 % activation to Tapinarof at 9 μM [3]: 97.8%

CC(C)c1c(O)cc(-c2cc(F)c3cnc(N)nc3c2)cc1O [Compound 39]
EC50 [1, 6]: 3.58 nM | M1 assay IL6 -max % inhibition (% to no treatment) [4]: 89.60% | IC50 [4]: 0.2 nM
